Measurements published in patent US20240376153A1, “CNP CYCLIC PEPTIDE, AND MEDICINE, EXTERNAL PREPARATION AND COSMETIC EACH CONTAINING SAID CYCLIC PEPTIDE” (Igisu Co., Ltd., priority 2015, published 2024).
“Also recorded” adds a separate entry of the source. Positions of bridges follow the written chain, without caps; N, C: chain ends. Residues, ends and D or L forms follow the SMILES beside them. No end group written: not given here.

Key:
[1] = tested on: nasal cavity, the affected site; experiment: Effect on nose of cyclic peptides in which amino acid was substituted; settings: Formulation C = 30 μg/ml, nasal application once/day
Experimental: The obtained cyclic peptide was combined with purified water at 1, 5, 30, 100, 500 μg/ml and applied to the affected site. Formulations A to E in the tables refers to the cyclic peptide of 1, 5, 30, 100, 500 μg/ml, respectively.

[2] = tested on: affected site of skin; experiment: Effect on skin of cyclic peptides in which amino acid was substituted; assay type: in vivo, human
Experimental: Formulations A to E refers to cyclic peptide concentration of 1, 5, 30, 100, 500 μg/ml, respectively.

[3] = rough skin, Formulation C (30 μg/ml)
[4] = atopic dermatitis, Formulation B (5 μg/ml in purified water) applied to affected site
[5] = atopic dermatitis, Formulation C (30 μg/ml in purified water) applied to affected site
[6] = rough skin, Formulation A (1 μg/ml)
[7] = psoriasis vulgaris, Formulation C (30 μg/ml)

## CC[C@H](C)[C@@H]1NC(=O)[C@H](CCCNC(=N)N)NC(=O)[C@H](CC(=O)O)NC(=O)[C@H](CCSC)NC(=O)[C@H](CCCCN)NC(=O)[C@H](CC(C)C)NC(=O)[C@H](C)NC(=O)[C@H](Cc2ccccc2)NC(=O)[C@@H](N)CSSC[C@@H](C(=O)O)NC(=O)CNC(=O)[C@H](CC(C)C)NC(=O)CNC(=O)[C@H](CO)NC(=O)[C@H](CCSC)NC(=O)[C@H](CO)NC(=O)CNC1=O [SEQ ID NO. 32] (H-CFALKMDRIGSMSGLGC-OH; disulfide 1-17; N-terminus and C-terminus assumed)
[1]
  irritation upon nasal application: There was no irritation upon nasal application.

## CC[C@H](C)[C@@H]1NC(=O)[C@H](CCCNC(=N)N)NC(=O)[C@H](CC(=O)O)NC(=O)[C@H](CC(C)C)NC(=O)[C@H](CCCCN)NC(=O)[C@H](CC(C)C)NC(=O)CNC(=O)[C@H](Cc2ccccc2)NC(=O)[C@@H](N)CSSC[C@@H](C(=O)O)NC(=O)CNC(=O)[C@H](CC(C)C)NC(=O)CNC(=O)[C@H](CO)NC(=O)[C@H](CCSC)NC(=O)[C@H]([C@@H](C)O)NC(=O)CNC1=O [SEQ ID NO: 10] (H-CFGLKLDRIGTMSGLGC-OH; disulfide 1-17; N-terminus and C-terminus assumed)
[1]
  irritation upon nasal application: There was no irritation upon nasal application.

## CC[C@H](C)[C@@H]1NC(=O)[C@H](CCCNC(=N)N)NC(=O)[C@H](CC(=O)O)NC(=O)[C@H](CC(C)C)NC(=O)[C@H](CCCCN)NC(=O)[C@H](CC(C)C)NC(=O)CNC(=O)[C@H](Cc2ccccc2)NC(=O)[C@@H](N)CSSC[C@@H](C(=O)O)NC(=O)CNC(=O)[C@H](CC(C)C)NC(=O)CNC(=O)[C@H](CO)NC(=O)[C@H](CCSC)NC(=O)[C@H](C)NC(=O)CNC1=O [SEQ ID NO: 11] (H-CFGLKLDRIGAMSGLGC-OH; disulfide 1-17; N-terminus and C-terminus assumed)
[1]
  irritation upon nasal application: There was no irritation upon nasal application.

## SEQ ID NO: 6: cyclic peptide in which one amino acid has been substituted (CFALKLDRIGSMSGLGC; disulfide 1-17)
[2]; eczema, large winkles, Formulation B (5 μg/ml)
  Post-treatment diagnostic skin impression: Immediately after application, itches were eliminated.
[2]; [3]
  Post-treatment diagnostic skin impression: texture was improved. After 2 min, wrinkles were shallowed,; also recorded: skin was full and given resilience; also recorded: Immediately after application, itches were eliminated, skin

## SEQ ID NO: 8: cyclic peptide in which one amino acid has been substituted (CFGLKMDRIGSMSGLGC; disulfide 1-17)
[2]; atopic dermatitis, Formulation A (1 μg/ml), two-sided application (right vs left) in the same subject
  Post-treatment diagnostic skin impression: After 1 min, erythema, infiltration, itches were remitted; also recorded: After 2 min, stining feeling was eliminated; also recorded: Immediately after application, itches were eliminated; also recorded: improved, skin texture was improved and moistened
[2]; [4]
  Post-treatment diagnostic skin impression: Immediately after application, itches were eliminated,; also recorded: erythema and scales were remitted
[2]; [5]
  Post-treatment diagnostic skin impression: the day next, erythema was remarkably improved; also recorded: After stopping 3 days of application, the effects lasted
[2]; [6]
  Post-treatment diagnostic skin impression: Immediately after application itches were eliminated; also recorded: After 3 min, skin texture was improved finely, pore
[2]; seborrheic dermatitis, acne (comedo), Formulation C (30 μg/ml)
  Post-treatment diagnostic skin impression: After 1 min, itches were eliminated; also recorded: opening became inconspicuous, acne (comedo) was reduced

## SEQ ID NO: 12: cyclic peptide in which one amino acid has been substituted (CFGLKLDRIGVMSGLGC; disulfide 1-17)
[2]; [3]
  Post-treatment diagnostic skin impression: improved.

## SEQ ID NO: 14: cyclic peptide in which one amino acid has been substituted (CFGLKLDRIGLMSGLGC; disulfide 1-17)
[2]; [4]
  Post-treatment diagnostic skin impression: After 1 min, itches, scales, erythema
[2]; [7]
  Post-treatment diagnostic skin impression: After 3 min, scales, crusts and infiltration were remitted.

## SEQ ID NO: 15: cyclic peptide in which one amino acid has been substituted (CFGLKLDRIGSMTGLGC; disulfide 1-17)
[2]; psoriasis vulgaris, Formulation B (5 μg/ml)
  Post-treatment diagnostic skin impression: remarkably remitted, crusts were eliminated.
[2]; psoriasis, Formulation B (5 μg/ml)
  Post-treatment diagnostic skin impression: After 3 min, scales were remitted. 3 min after further; also recorded: reduced
[2]; rough skin, wrinkles, Formulation A (1 μg/ml)
  Post-treatment diagnostic skin impression: kept moistened, facial erythema and scales were normalized.
[2]; seborrheic dermatitis, Formulation C (30 μg/ml)
  Post-treatment diagnostic skin impression: Immediately after application, itches were remitted

## SEQ ID NO: 17: cyclic peptide in which one amino acid has been substituted (CFGLKLDRIGSMSGAGC; disulfide 1-17)
[2]; [5]
  Post-treatment diagnostic skin impression: Immediately after application, itches were eliminated; also recorded: remitted

## SEQ ID NO: 32 (CFALKMDRIGSMSGLGC; disulfide 1-17)
[2]; [7]
  Post-treatment diagnostic skin impression: remitted. After 10 min, erythema was further remitted.
[2]; rough skin, acne (comedo), Formulation C (30 μg/ml)
  Post-treatment diagnostic skin impression: Immediately after application, itches were eliminated; also recorded: (comedo) was reduced

## SEQ ID NO: 35: cyclic peptide in which two amino acids have been substituted (CFALKLDRIGSMSGIGC; disulfide 1-17)
[2]; [4]
  Post-treatment diagnostic skin impression: Immediately after application, itches were eliminated,; also recorded: erythema ard scales were remarkably improved
[2]; [5]
  Post-treatment diagnostic skin impression: After 1 min, itches were eliminated; also recorded: After 2 min, scales and erythema were remarkably improved; also recorded: After 3 min, skin was almost normalized and moisturized

## SEQ ID NO: 37: cyclic peptide in which two amino acids have been substituted (CFGLKMDRIGSMTGLGC; disulfide 1-17)
[2]; atopic dermatitis, Formulation A (1 μg/ml in purified water) applied to affected site
  Post-treatment diagnostic skin impression: After 2 min, itches were eliminated.
[2]; [5]
  Post-treatment diagnostic skin impression: Immediately after application, itches were remitted,; also recorded: erythema, infiltration and scales were remarkably improved

## SEQ ID NO: 38: cyclic peptide in which two amino acids have been substituted (CFGLKMDRIGSMSGIGC; disulfide 1-17)
[2]; [5]
  Post-treatment diagnostic skin impression: After 1 min, itches were eliminated; also recorded: improved. After 3 min, skin was almost normalized and; also recorded: moisturized
[2]; contact dermatitis, Formulation C (30 μg/ml)
  Post-treatment diagnostic skin impression: After 1 min, itches was remitted; also recorded: After 3 min, swelling lessened, erythema was remitted
[2]; [7]
  Post-treatment diagnostic skin impression: After 3 min, scales and infiltration were remitted
[2]; rough skin, contact dermatitis, Formulation A (1 μg/ml), two-sided application (right vs left)
  Post-treatment diagnostic skin impression: After 2 min, rought desiccation and erythema was remitted,; also recorded: skin texture was improved and moisturized
[2]; rough skin, wrinkles, Formulation B (5 μg/ml)
  Post-treatment diagnostic skin impression: shallowed, skin was full and given resilience.
[2]; [6]
  Post-treatment diagnostic skin impression: kept moistened.

## SEQ ID NO: 49: cyclic peptide in which three amino acids have been substituted (CFALKMDRIGSMTGLGC; disulfide 1-17)
[2]; psoriasis vulgaris, Formulation A (1 μg/ml)
  Post-treatment diagnostic skin impression: erythema were remitted.

## SEQ ID NO: 51: cyclic peptide in which three amino acids have been substituted (CFGLKMDRIGTMTGLGC; disulfide 1-17)
[2]; [5]
  Post-treatment diagnostic skin impression: Immediately after application, itches were eliminated; also recorded: scratch scars were remitted
[2]; eczema, Formulation B (5 μg/ml)
  Post-treatment diagnostic skin impression: Immediately after application, itches were eliminated; also recorded: After 3 min, erythema and infiltration were remitted
